Source: ChEMBL document CHEMBL4340530, “Peptide-based covalent inhibitors of MALT1 paracaspase” (Bioorg Med Chem Lett, 2019)
Activity calls are given as the source filed them. No cut-off for these calls is given here. Numbered stars: 1 amine (or outer) side, 2 acyl side, 3 side chain; on linkers, the order of the positions; unused ones are H or OH. Square brackets hold non-standard residues; d marks the D form. Peptide text beside a SMILES is read from it. * marks the point of attachment. cisHyp = O=C(O)[C@@H]1C[C@H](O)CN1; NMeR = CN[C@@H](CCCNC(=N)N)C(=O)O; Hyp = O=C(O)[C@@H]1C[C@@H](O)CN1; Chg = N[C@H](C(=O)O)C1CCCCC1; Phg = N[C@H](C(=O)O)c1ccccc1; Tle = CC(C)(C)[C@H](N)C(=O)O; NMeV = CN[C@H](C(=O)O)C(C)C; αMeP = C[C@@]1(C(=O)O)CCCN1; Pip = O=C(O)[C@@H]1CCCCN1; Ac6c = NC1(C(=O)O)CCCCC1; Ac5c = NC1(C(=O)O)CCCC1; Cbz = O=C(OCc1ccccc1)*; CO = O=C([*:1])[*:2]; Bz = O=C(c1ccccc1)*; NHPh = c1ccc(N*)cc1; CH2F = FC*

Columns and labels:
OCI-Ly3 = assay: Antiproliferative activity against human OCI-LY3 cells assessed as growth inhibition treated every 48 hrs measured after 96 hrs by CellTiter-Glo assay; format: functional
OCI-Ly1 = assay: Antiproliferative activity against human OCI-LY1 cells up to 20 uM; format: functional, cell-based
[1] = target: T1, Mucosa-associated lymphoid tissue lymphoma translocation protein 1 (Homo sapiens, UniProt Q9UDY8); assay: Inhibition of recombinant LZ-fused MALT1 (340 to 789 residues) (unknown origin) using Ac-LRSR-AMC as substrate by fluorescence assay
T1 sequence (Q9UDY8 whole entry): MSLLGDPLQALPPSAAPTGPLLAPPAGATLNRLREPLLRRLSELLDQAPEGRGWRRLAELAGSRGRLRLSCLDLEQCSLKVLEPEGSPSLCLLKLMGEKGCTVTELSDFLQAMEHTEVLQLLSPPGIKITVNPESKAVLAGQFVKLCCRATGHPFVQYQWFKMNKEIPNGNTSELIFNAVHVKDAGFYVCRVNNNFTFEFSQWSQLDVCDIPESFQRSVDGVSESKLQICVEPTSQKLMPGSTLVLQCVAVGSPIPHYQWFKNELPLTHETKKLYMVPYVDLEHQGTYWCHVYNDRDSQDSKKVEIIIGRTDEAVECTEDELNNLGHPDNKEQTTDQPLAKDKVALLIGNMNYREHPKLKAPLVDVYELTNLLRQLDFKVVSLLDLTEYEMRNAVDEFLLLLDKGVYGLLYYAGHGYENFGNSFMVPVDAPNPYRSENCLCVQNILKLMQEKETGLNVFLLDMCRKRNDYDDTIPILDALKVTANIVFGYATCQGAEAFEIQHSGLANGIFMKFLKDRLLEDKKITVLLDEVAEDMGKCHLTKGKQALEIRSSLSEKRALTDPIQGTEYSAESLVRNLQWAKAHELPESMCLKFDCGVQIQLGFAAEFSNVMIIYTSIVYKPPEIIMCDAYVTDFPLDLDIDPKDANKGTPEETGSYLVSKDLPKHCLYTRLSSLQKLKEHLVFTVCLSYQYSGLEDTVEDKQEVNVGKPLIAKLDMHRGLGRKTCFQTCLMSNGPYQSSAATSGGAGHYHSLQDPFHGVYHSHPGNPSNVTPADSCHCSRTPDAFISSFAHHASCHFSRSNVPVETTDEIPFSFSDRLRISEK

[2] = target: T2, Mucosa-associated lymphoid tissue lymphoma translocation protein 1 (Homo sapiens) (UniProt Q9UDY8); assay: Inhibition of MALT1 (unknown origin) expressed in PMA/IO-stimulated human Raji Glosensor cells by reporter gene assay; format: cell-based
T2 sequence (whole entry): T1 sequence (Q9UDY8 whole entry)

Row | SMILES | GI50 (OCI-Ly3) [nM] | other results
1 | N=C(N)NCCC[C@H](NC(=O)[C@H](CO)NC(=O)[C@@H](NC(=O)c1ccc(Br)cc1)C1CCCCC1)C(=O)CF | 240 | –
2 | N=C(N)NCCC[C@H](NC(=O)[C@@H]1CCCN1C(=O)C1(NC(=O)OCc2ccccc2)CCCC1)C(=O)CF (Cbz-[Ac5c]-Pro-Arg-CH2F) | 4310 | –
3 | CC(C)[C@H](NC(=O)Nc1ccc(Cl)cc1)C(=O)N1CCC[C@H]1C(=O)N[C@@H](CCCNC(=N)N)C(=O)CF | 780 | –
4 | CC(C)[C@H](NC(=O)OCc1ccccc1)C(=O)N1CCC[C@@]1(C)C(=O)N[C@@H](CCCNC(=N)N)C(=O)CF (Cbz-Val-[αMeP]-Arg-CH2F) | 10500 | –
5 | N=C(N)NCCC[C@H](NC(=O)[C@@H]1CCCN1C(=O)[C@H](Cc1ccccc1)NC(=O)OCc1ccccc1)C(=O)CF | 2200 | –
6 | CC(C)[C@@H](C(=O)N1CCC[C@H]1C(=O)N[C@@H](CCCNC(=N)N)C(=O)CF)N(C)C(=O)OCc1ccccc1 (Cbz-[NMeV]-Pro-Arg-CH2F) | > 20000 | Activity (OCI-Ly1): inactive
7 | CC(C)[C@H](NC(=O)Nc1ccccc1)C(=O)N1CCC[C@H]1C(=O)N[C@@H](CCCNC(=N)N)C(=O)CF ({NHPh-CO}-Val-Pro-Arg-CH2F) | 1520 | –
8 | CC(C)[C@H](NC(=O)c1ccc(Br)cc1)C(=O)N1CCOC[C@H]1C(=O)N[C@@H](CCCNC(=N)N)C(=O)CF | 460 | –
9 | CC(C)C[C@H](NC(=O)OCc1ccccc1)C(=O)N[C@H](C(=O)N1CCC[C@H]1C(=O)N[C@@H](CCCNC(=N)N)C(=O)CF)C(C)C (Cbz-LVPR-CH2F) | 1050 | Ki [1]: 90 nM; Activity (OCI-Ly1): inactive
10 | CC(C)[C@H](NC(=O)c1ccc(Br)cc1)C(=O)N1COC[C@H]1C(=O)N[C@@H](CCCNC(=N)N)C(=O)CF | 120 | –
11 | CC(C)[C@H](NC(=O)c1ccccc1)C(=O)N1CCC[C@H]1C(=O)N[C@@H](CCCNC(=N)N)C(=O)CF (Bz-Val-Pro-Arg-CH2F) | 660 | –
12 | CC(C)(C)[C@H](NC(=O)OCc1ccccc1)C(=O)N1CCC[C@H]1C(=O)N[C@@H](CCCNC(=N)N)C(=O)CF (Cbz-[Tle]-Pro-Arg-CH2F) | 1440 | –
13 | CC(C)[C@H](NC(=O)OCc1ccccc1)C(=O)N1CCC[C@H]1C(=O)N(C)[C@@H](CCCNC(=N)N)C(=O)CF (Cbz-Val-Pro-[NMeR]-CH2F) | – | Ki [1]: > 5000 nM; Activity (OCI-Ly1): inactive
14 | CC[C@H](C)[C@H](NC(=O)OCc1ccccc1)C(=O)N1CCC[C@H]1C(=O)N[C@@H](CCCNC(=N)N)C(=O)CF (Cbz-Ile-Pro-Arg-CH2F) | 2440 | –
15 | N=C(N)NCCC[C@H](NC(=O)[C@@H]1CCCN1C(=O)[C@@H](NC(=O)c1ccc(Br)cc1)C1CCCCC1)C(=O)CF | 130 | –
16 | CC(C)[C@H](NC(=O)c1ccc(Br)cc1)C(=O)N1CCC[C@@H]1C(=O)N[C@@H](CCCNC(=N)N)C(=O)CF | > 20000 | IC50 [2]: 17.5 µM
17 | CC(C)[C@H](NC(=O)c1ccc(Br)cc1)C(=O)N1CC[C@H]1C(=O)N[C@@H](CCCNC(=N)N)C(=O)CF | 770 | –
18 | CN[C@H](C(=O)N1CCC[C@H]1C(=O)N[C@@H](CCCNC(=N)N)C(=O)CF)C(C)C (H-[NMeV]-Pro-Arg-CH2F) | > 20000 | Ki [1]: > 200 nM; Activity (OCI-Ly1): inactive
19 | N=C(N)NCCC[C@H](NC(=O)[C@@H]1CCCN1C(=O)[C@@H](NC(=O)OCc1ccccc1)c1ccccc1)C(=O)CF (Cbz-[Phg]-Pro-Arg-CH2F) | 8050 | –

Row | SMILES | GI50 (OCI-Ly3) [nM] | other results
20 | N=C(N)NCCC[C@H](NC(=O)[C@@H]1CCCN1C(=O)[C@@H](NC(=O)OCc1ccccc1)C1CCCCC1)C(=O)CF (Cbz-[Chg]-Pro-Arg-CH2F) | 1450 | –
21 | CC(C)[C@H](NC(=O)c1cccc(Br)c1)C(=O)N1CCC[C@H]1C(=O)N[C@@H](CCCNC(=N)N)C(=O)CF | 530 | –
22 | CC(C)[C@H](NC(=O)OCc1ccccc1)C(=O)N1C[C@@H](O)C[C@H]1C(=O)N[C@@H](CCCNC(=N)N)C(=O)CF (Cbz-Val-[cisHyp]-Arg-CH2F) | 1070 | IC50 [2]: 0.239 µM
23 | CC(C)[C@H](NC(=O)OCc1ccccc1)C(=O)N1C[C@H](O)C[C@H]1C(=O)N[C@@H](CCCNC(=N)N)C(=O)CF (Cbz-Val-[Hyp]-Arg-CH2F) | 290 | IC50 [2]: 0.209 µM
24 | CC(C)[C@H](NC(=O)c1ccc(Br)cc1)C(=O)N1C[C@H](O)C[C@H]1C(=O)N[C@@H](CCCNC(=N)N)C(=O)CF | 70 | –
25 | CC(C)[C@H](NC(=O)OCc1ccccc1)C(=O)N[C@@H](CO)C(=O)N[C@@H](CCCNC(=N)N)C(=O)CF | 290 | –
26 | CC(C)[C@H](NC(=O)OCc1ccccc1)C(=O)N[C@@H](CCCNC(=N)N)C(=O)N1CCC[C@H]1C(=O)N[C@@H](CCCNC(=N)N)C(=O)CF | 8220 | Ki [1]: 140 nM; Activity (OCI-Ly1): inactive
27 | CC(C)C[C@H](NC(=O)OCc1ccccc1)C(=O)N1CCC[C@H]1C(=O)N[C@@H](CCCNC(=N)N)C(=O)CF (Cbz-Leu-Pro-Arg-CH2F) | 5490 | –
28 | CC(C)[C@H](NC(=O)c1ccccc1Br)C(=O)N1CCC[C@H]1C(=O)N[C@@H](CCCNC(=N)N)C(=O)CF | 4240 | –
29 | CC(C)c1ccc(C(=O)N[C@H](C(=O)N2CCC[C@H]2C(=O)N[C@@H](CCCNC(=N)N)C(=O)CF)C(C)C)cc1 | 270 | –
30 | CC(C)[C@H](NC(=O)C1CCCCC1)C(=O)N1CCC[C@H]1C(=O)N[C@@H](CCCNC(=N)N)C(=O)CF | 940 | –
31 | COc1ccc(C(=O)N[C@H](C(=O)N2CCC[C@H]2C(=O)N[C@@H](CCCNC(=N)N)C(=O)CF)C(C)C)cc1 | 1670 | –
32 | N=C(N)NCCC[C@H](NC(=O)[C@@H]1C[C@@H](O)CN1C(=O)[C@@H](NC(=O)c1ccc(Br)cc1)C1CCCCC1)C(=O)CF | 60 | –
33 | CC(C)[C@H](NC(=O)OCc1ccccc1)C(=O)N1CCC[C@H]1C(=O)N[C@@H](CCCNC(=N)N)C(=O)CF (Cbz-Val-Pro-Arg-CH2F) | 8520 | Activity (OCI-Ly1): inactive
34 | CC(C)[C@H](NC(=O)c1ccc(C(F)(F)F)cc1)C(=O)N1CCC[C@H]1C(=O)N[C@@H](CCCNC(=N)N)C(=O)CF | 120 | –
35 | N=C(N)NCCC[C@H](NC(=O)[C@@H]1CCCN1C(=O)C1(NC(=O)OCc2ccccc2)CCCCC1)C(=O)CF (Cbz-[Ac6c]-Pro-Arg-CH2F) | 6230 | –
36 | CC(C)[C@H](NC(=O)OCc1ccccc1)C(=O)N1CCCC[C@H]1C(=O)N[C@@H](CCCNC(=N)N)C(=O)CF (Cbz-Val-[Pip]-Arg-CH2F) | 730 | –
37 | CC(C)[C@H](NC(=O)c1ccc(Cl)cc1)C(=O)N1CCC[C@H]1C(=O)N[C@@H](CCCNC(=N)N)C(=O)CF | 1240 | –
38 | CC(C)[C@H](NC(=O)c1ccc(C#N)cc1)C(=O)N1CCC[C@H]1C(=O)N[C@@H](CCCNC(=N)N)C(=O)CF | 6660 | –
